Measured values from ChEMBL document CHEMBL3785017, “Induction of apoptosis and differentiation by atractylenolide-1 isolated from Atractylodes macrocephala in human leukemia cells” (Bioorg Med Chem Lett, 2016).
Values after ≈ are worked out from the molar mass of the structure shown. Active and inactive are the calls of the source. The calls are words filed in the database; no cut-off is given here.

Key:
[1] = Cell cycle arrest in human Jurkat T cells assessed as accumulation at sub G1 phase at 12.5 ug/ml after 24 hrs by propidium iodide staining based flow cytometry (reference value: 0.9%); format: functional
U-937 [2] = assay: Induction of apoptosis in human U937 cells assessed as PARP degradation at 50 ug/ml after 24 hrs by Western blot analysis; format: functional, cell-based
[3] = Cell cycle arrest in human U937 cells assessed as accumulation at sub G1 phase at 50 to 100 ug/ml after 24 hrs by propidium iodide staining based flow cytometry; format: functional; conditions: U-937
U-937 [4] = assay: Induction of apoptosis in human U937 cells assessed as fragmented chromosomal DNA at 6.25 to 50 ug/ml after 12 to 48 hrs by agarose gel electrophoresis; format: functional, cell-based
[5] = Cytotoxicity against human U937 cells assessed as growth inhibition after 48 hrs by MTT assay; format: functional, cell-based; conditions: U-937, 48 h
[6] = Cytotoxicity against human U937 cells assessed as growth inhibition after 24 hrs by MTT assay; format: functional, cell-based; conditions: U-937, 24 h
[7] = Cytotoxicity against human Jurkat T cells assessed as growth inhibition after 48 hrs by MTT assay; format: functional, cell-based
K562 [8] = assay: Induction of cell death in human K562 cells at 12.5 to 50 ug/ml after 48 hrs; format: functional, cell-based
Jurkat [9] = assay: Induction of apoptosis in human Jurkat T cells assessed as PARP degradation at 50 ug/ml after 24 hrs by Western blot analysis; format: functional, cell-based
K562 [10] = assay: Induction of cell differentiation in human K562 cells assessed as upregulation of CD14 at 50 ug/ml after 72 hrs by flow cytometry (reference value: 6.4%); format: functional
[11] = Induction of cell differentiation in human U937 cells assessed as upregulation of CD68 at 12.5 ug/ml after 72 hrs by flow cytometry (reference value: 5.9%); format: functional, cell-based; conditions: U-937
[12] = Cell cycle arrest in human Jurkat T cells assessed as accumulation at sub G1 phase at 25 ug/ml after 24 hrs by propidium iodide staining based flow cytometry (reference value: 0.9%); format: functional
K562 [13] = assay: Cytotoxicity against human K562 CML cells assessed as growth inhibition treated with high doses of compound after 48 to 72 hrs by MTT assay; format: functional, cell-based
[14] = Cytotoxicity against human Jurkat T cells assessed as growth inhibition after 12 hrs by MTT assay; format: functional, cell-based
Jurkat [15] = assay: Induction of cell death in human Jurkat T cells; format: functional, cell-based
Jurkat [16] = assay: Induction of apoptosis in human Jurkat T cells assessed as procaspase 9 degradation at 6.25 to 50 ug/ml after 24 hrs by Western blot analysis; format: functional, cell-based
U-937 [17] = assay: Induction of apoptosis in human U937 cells assessed as procaspase 3 degradation at 6.25 to 50 ug/ml after 24 hrs by Western blot analysis; format: functional, cell-based
Jurkat [18] = assay: Induction of apoptosis in human Jurkat T cells assessed as fragmented chromosomal DNA at 6.25 to 50 ug/ml after 12 to 48 hrs by agarose gel electrophoresis; format: functional, cell-based
U-937 [19] = assay: Induction of cell death in human U937 at 12.5 to 25 ug/ml cells after 24 hrs; format: functional, cell-based
U-937 [20] = assay: Induction of apoptosis in human U937 cells assessed as procaspase 9 degradation at 6.25 to 50 ug/ml after 24 hrs by Western blot analysis; format: functional, cell-based
[21] = Cytotoxicity against human Jurkat T cells assessed as growth inhibition after 24 hrs by MTT assay; format: functional, cell-based
Jurkat [22] = assay: Induction of apoptosis in human Jurkat T cells assessed as procaspase 3 degradation at 6.25 to 50 ug/ml after 24 hrs by Western blot analysis; format: functional, cell-based
[23] = Induction of cell differentiation in human U937 cells assessed as upregulation of CD68 at 6.25 ug/ml after 72 hrs by flow cytometry (reference value: 5.9%); format: functional, cell-based; conditions: U-937
[24] = Induction of cell differentiation in human U937 cells assessed as upregulation of CD14 at 6.25 ug/ml after 72 hrs by flow cytometry (reference value: 4.3%); format: functional, cell-based; conditions: U-937
[25] = Cell cycle arrest in human Jurkat T cells assessed as accumulation at sub G1 phase at 50 ug/ml after 24 hrs by propidium iodide staining based flow cytometry (reference value: 0.9%); format: functional
K562 [26] = assay: Induction of cell differentiation in human K562 cells assessed as upregulation of CD14 at 12.5 ug/ml after 72 hrs by flow cytometry (reference value: 6.4%); format: functional
K562 [27] = assay: Cell cycle arrest in human K562 cells assessed as accumulation at sub G1 phase at 50 to 100 ug/ml after 48 hrs by propidium iodide staining based flow cytometry; format: functional
U-937 [28] = assay: Induction of phagocytosis in human U937 cells at 6.25 to 12.5 ug/ml measured using fluorescent latex beads after 2 hrs by flow cytometry relative to control; format: functional
U-937 [29] = assay: Induction of phagocytosis in human U937 cells at 0.1 uM measured using fluorescent latex beads after 2 hrs by flow cytometry; format: functional, cell-based
K562 [30] = assay: Induction of phagocytosis in human K562 cells at 0.1 uM preincubated for 4 to 6 days followed by addition of fluorescent latex beads measured after 2 hrs by flow cytometry; format: functional, cell-based
[31] = Induction of cell differentiation in human U937 cells assessed as upregulation of CD14 at 0.1 uM after 72 hrs by flow cytometry (reference value: 4.3%); format: functional, cell-based; conditions: U-937
[32] = Induction of cell differentiation in human U937 cells assessed as upregulation of CD68 at 0.1 uM after 72 hrs by flow cytometry (reference value: 5.9%); format: functional, cell-based; conditions: U-937
K562 [33] = assay: Induction of cell differentiation in human K562 cells assessed as upregulation of CD14 at 0.1 uM after 72 hrs by flow cytometry (reference value: 6.4%); format: functional
K562 [34] = assay: Induction of cell differentiation in human K562 cells assessed as upregulation of CD14 at 10 uM after 72 hrs by flow cytometry; format: functional, cell-based
U-937 [35] = assay: Induction of phagocytosis in human U937 cells at 10 uM measured using fluorescent latex beads after 2 hrs by flow cytometry; format: functional, cell-based
[36] = Induction of cell differentiation in human U937 cells assessed as upregulation of CD14 at 10 uM after 72 hrs by flow cytometry; format: functional, cell-based; conditions: U-937
K562 [37] = assay: Induction of phagocytosis in human K562 cells at 10 uM incubated for 4 to 6 days followed by fluorescent latex beads addition measured after 2 hrs by flow cytometry; format: functional, cell-based

C=C1CCC[C@]2(C)C=C3OC(=O)C(C)=C3C[C@@H]12 [ATRACTYLENOLIDE I]
Activity [1]: 7.5% | Activity (U-937 [2]): Active | Activity [3]: > 50% | Activity (U-937 [4]): Active | IC50 [5]: 4.23 µg/mL (≈ 18.4 µM) | IC50 [6]: 14.9 µg/mL (≈ 64.7 µM) | IC50 [7]: 24.4 µg/mL (≈ 106 µM) | Activity (K562 [8]): Active | Activity (Jurkat [9]): Active | Activity (K562 [10]): 18.1% | Activity [11]: 84.3% | Activity [12]: 20.3% | growth inhibition (GI) (K562 [13]): Active | IC50 [14]: 44.7 µg/mL (≈ 194 µM) | Activity (Jurkat [15]): Active | Activity (Jurkat [16]): Active | Activity (U-937 [17]): Active | Activity (Jurkat [18]): Active | Activity (U-937 [19]): Active | Activity (U-937 [20]): Active | IC50 [21]: 37.6 µg/mL (≈ 163 µM) | Activity (Jurkat [22]): Active | Activity [23]: 53.3% | Activity [24]: 25.6% | Activity [25]: 32.3% | Activity (K562 [26]): 13.4% | Activity (K562 [27]): >50% | Activity (U-937 [28]): 50%

CCCCCCCCCCCCCC(=O)O[C@@H]1[C@@H](C)[C@@]2(O)[C@@H](C=C(CO)C[C@]3(O)C(=O)C(C)=C[C@@H]23)[C@@H]2C(C)(C)[C@]12OC(C)=O [PHORBOL MYRISTATE ACETATE]
Activity (U-937 [29]): Active | Activity (K562 [30]): Active | Activity [31]: 25% | Activity [32]: 39.2% | Activity (K562 [33]): 38.1%

CC[C@@]1(O)C(=O)OCc2c1cc1n(c2=O)Cc2cc3ccccc3nc2-1
Activity (K562 [34]): inactive | Activity (U-937 [35]): inactive | Activity [36]: inactive | Activity (K562 [37]): inactive
